EC50 data for three molecules are collected here from PubChem BioAssay AID681 (The Scripps Research Institute Molecular Screening Center, 2007).

The target of this test is Nuclear receptor ROR-alpha (Homo sapiens) (UniProt P35398). As to the kind of experiment: activators of RORA nuclear receptor, dose response, cell-based, CHO-K1, Gal4-RORA LBD, luciferase luminescence (AID 681). Particulars: CHO-K1 Gal4-RORA LBD luciferase reporter.
Sequence of Nuclear receptor ROR-alpha (Homo sapiens) (P35398 whole entry, looked up, the tested form may be a part): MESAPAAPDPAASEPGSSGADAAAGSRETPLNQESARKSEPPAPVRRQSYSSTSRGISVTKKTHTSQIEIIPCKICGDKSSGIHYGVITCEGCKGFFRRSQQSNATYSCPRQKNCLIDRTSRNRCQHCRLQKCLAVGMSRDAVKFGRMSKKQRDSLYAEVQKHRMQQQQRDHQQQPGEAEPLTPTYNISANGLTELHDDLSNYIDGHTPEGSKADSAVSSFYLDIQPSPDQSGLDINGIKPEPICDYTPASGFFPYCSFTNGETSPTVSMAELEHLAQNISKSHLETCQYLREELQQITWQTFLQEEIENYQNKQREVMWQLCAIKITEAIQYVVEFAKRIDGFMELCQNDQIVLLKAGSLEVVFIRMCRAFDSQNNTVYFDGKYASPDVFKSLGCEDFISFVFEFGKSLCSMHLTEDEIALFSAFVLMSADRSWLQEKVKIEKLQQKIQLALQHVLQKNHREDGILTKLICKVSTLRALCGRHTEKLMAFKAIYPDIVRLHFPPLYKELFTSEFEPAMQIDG
Broadly, the EC50 is the concentration needed to bring the measured effect to its halfway point. Consider `CCOc1ccc(/C=C\C(C)=N\O)cc1`, for which the 50% effective concentration (EC50) is 491 nM.
In the case of `C=CCOc1ccc(/C=C/C(C)=N\O)cc1` it was 1350 nM; in that of `O=C1COc2ccc(OCc3ccc(F)cc3)cc21`, 3630 nM.
